Source: patent US20240173241A1, “Multistable Photochromic Pigments For Intradermal Use” (THE REGENTS OF THE UNIVERSITY OF COLORADO, a body corporate, priority 2021, published 2024)

Assay: UV activation of P-type photochromic dye in PMMA matrix in natural sunlight (ΔE*ab vs. time)
Assay type: physicochemical
Excerpt: FIG. 5 is a set of six graphs (A-F) comparing measured and modeled data for the UV activation of P-type photochromic dyes with and without UV and color filters. The UV-activated color change is quantified by ΔE*ab in CIELAB chromaticity space for measured data, while it is expressed in terms of the relative concentration. [C], of the photoactivated species in the modeled data. (A) ΔE*ab vs. time for a P-type photochromic dye (1,2-Bis(2-methyl-5-phenyl-3-thienyl)-perfluorocyclopentenediarylethene, DAE-0001) embedded in a PMMA matrix in natural sunlight in Boulder, Colorado. The time to 85% complete activation, […], is 67 s. (B) ΔE*ab vs. time for DAE-0001 with 50% UV filter ([…] =142 s). […]
where [C] is the concentration of the photoactivated species (photostationary state), [S] is the concentration of the ground-state species, εS,λ is the molar absorptivity of the ground-state species at wavelength λ, εC,λ is the molar absorptivity of the photoactivated species at wavelength λ, φs is the quantum yield of the cycloreversion or deactivation, φC is the quantum yield of photoactivation, Iλ is the irradiance at wavelength λ, and l is the path length. […] The simulations agree well with measured data of its UV activation in natural sunlight in Boulder, Colorado, as shown in FIG. 5A and FIG. 5B. […]

Cc1sc(-c2ccccc2)cc1C1=C(c2cc(-c3ccccc3)sc2C)C(F)(F)C(F)(F)C1(F)F [DAE-0001, 1,2-Bis(2-methyl-5-phenyl-3-thienyl)-perfluorocyclopentenediarylethene]
time to 85% complete activation (embedded in a PMMA matrix, natural sunlight in Boulder, Colorado, no filter (FIG. 5A)): 67 s | time to 85% complete activation (natural sunlight, with 50% UV filter (FIG. 5B)): 142 s
